# According to PubChem BioAssay (NCI):
#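 96-well plates; 48 h exposure; 5 concentrations. Endpoints by linear interpolation between flanking doses. Not reached: highest tested concentration assigned. GI50: concentration for 50% inhibition of growth. TGI denotes the concentration required for complete inhibition of growth.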
# Key:
# Assay in all cases: DTP human tumour cell line panel, 48 h
# SF-295 CNS = test system: SF-295 CNS
# NCI-H522 lung = test system: NCI-H522 lung
# U251 CNS = test system: U251 CNS
# IGROV1 ovarian = test system: IGROV1 ovarian
# MOLT-4 leukemia = test system: MOLT-4 leukemia
# HCC-2998 colon = test system: HCC-2998 colon
# ACHN renal = test system: ACHN renal
# SK-OV-3 ovarian = test system: SK-OV-3 ovarian
# SR leukemia = test system: SR leukemia
# PC-3 prostate = test system: PC-3 prostate
# SNB-19 CNS = test system: SNB-19 CNS
# NCI-H226 lung = test system: NCI-H226 lung
# HCT-15 colon = test system: HCT-15 colon
# DU-145 prostate = test system: DU-145 prostate
# A498 renal = test system: A498 renal
# CAKI-1 renal = test system: CAKI-1 renal
# NCI/ADR-RES ovarian = test system: NCI/ADR-RES ovarian
# SK-MEL-5 melanoma = test system: SK-MEL-5 melanoma
# NCI-H460 lung = test system: NCI-H460 lung
# MCF7 breast = test system: MCF7 breast
# HL-60(TB) leukemia = test system: HL-60(TB) leukemia
# EKVX NSCLC = test system: EKVX NSCLC
# T-47D breast = test system: T-47D breast
# SN12C renal = test system: SN12C renal
# KM12 colon = test system: KM12 colon
# OVCAR-5 ovarian = test system: OVCAR-5 ovarian
# OVCAR-8 ovarian = test system: OVCAR-8 ovarian
# RPMI-8226 leukemia = test system: RPMI-8226 leukemia
smiles,measurement,setting,value
Cc1ncn(-c2ccc(/C=N/Nc3ccnc4cc(Cl)ccc34)cc2)c1C,GI50,SF-295 CNS,1.88 µM
same,TGI,SF-295 CNS,3.52 µM
same,GI50,NCI-H522 lung,1.8 µM
same,TGI,NCI-H522 lung,3.39 µM
same,GI50,U251 CNS,1.59 µM
same,TGI,U251 CNS,2.99 µM
same,GI50,IGROV1 ovarian,1.97 µM
same,TGI,IGROV1 ovarian,3.82 µM
same,GI50,MOLT-4 leukemia,1.94 µM
same,TGI,MOLT-4 leukemia,5.12 µM
same,GI50,HCC-2998 colon,1.92 µM
same,TGI,HCC-2998 colon,3.52 µM
same,GI50,ACHN renal,1.79 µM
same,TGI,ACHN renal,3.18 µM
same,GI50,SK-OV-3 ovarian,1.8 µM
same,TGI,SK-OV-3 ovarian,3.36 µM
same,GI50,SR leukemia,1.24 µM
same,TGI,SR leukemia,4.57 µM
same,GI50,PC-3 prostate,1.72 µM
same,TGI,PC-3 prostate,3.37 µM
same,GI50,SNB-19 CNS,1.88 µM
same,TGI,SNB-19 CNS,3.88 µM
same,GI50,NCI-H226 lung,2.42 µM
same,TGI,NCI-H226 lung,6.87 µM
same,GI50,HCT-15 colon,1.8 µM
same,TGI,HCT-15 colon,3.73 µM
same,GI50,DU-145 prostate,1.88 µM
same,TGI,DU-145 prostate,3.7 µM
same,GI50,A498 renal,6.49 µM
same,TGI,A498 renal,20.2 µM
same,GI50,CAKI-1 renal,1.63 µM
same,TGI,CAKI-1 renal,2.99 µM
same,GI50,NCI/ADR-RES ovarian,2.07 µM
same,TGI,NCI/ADR-RES ovarian,5.04 µM
same,GI50,SK-MEL-5 melanoma,2.07 µM
same,TGI,SK-MEL-5 melanoma,4.38 µM
same,GI50,NCI-H460 lung,1.78 µM
same,TGI,NCI-H460 lung,3.57 µM
same,GI50,MCF7 breast,1.54 µM
same,TGI,MCF7 breast,3.41 µM
same,GI50,HL-60(TB) leukemia,1.56 µM
same,TGI,HL-60(TB) leukemia,3.77 µM
same,GI50,EKVX NSCLC,3.45 µM
same,TGI,EKVX NSCLC,18 µM
same,GI50,T-47D breast,1.83 µM
same,TGI,T-47D breast,3.83 µM
same,GI50,SN12C renal,1.75 µM
same,TGI,SN12C renal,3.47 µM
same,GI50,KM12 colon,2.38 µM
same,TGI,KM12 colon,5.79 µM
same,GI50,OVCAR-5 ovarian,3.03 µM
same,TGI,OVCAR-5 ovarian,10 µM
same,GI50,OVCAR-8 ovarian,1.87 µM
same,TGI,OVCAR-8 ovarian,3.67 µM
same,GI50,RPMI-8226 leukemia,1.99 µM
